Results: publication PMC9645390, “Amphiphilic stilbene derivatives attenuate the neurotoxicity of soluble Aβ42 oligomers by controlling their interactions with cell membranes” (Chemical Science, 2022)
Where two headings read alike, the source gives them in different places. Values belong to the compound of their own block, whether it stands above or below them.

What was measured:
Aβ42 fibrils = molecular target: T1, Aβ42 fibrils (Homo sapiens, UniProt P05067); test: Fluorescence saturation binding assay with Aβ42 fibrils; conditions: for binding ratio, Fibrils: from cross point between plateau and initial slope
T1 construct: 1 mg of commercial Aβ42 monomer powder (from GL biochem) was dissolved in 1; purchased GL biochem
Experimental: (§1) Fig. 3 Binding constant measurements of ZY-5-OMe (left), ZY-5-MT (middle), ZY-5-DT (right) with Aβ42 fibrils (top), and oligomers (bottom). The measurements were performed in 10 mM phosphate buffered saline (PBS), pH 7.4. The Kd curves were fitted in GraphPad Prism with one site-specific binding model. Equation: Y = Bmax × X/(Kd + X). [Aβ42 fibrils] = [Aβ42 oligomers] = 5 μM.
(§2) Preparation of the Aβ42 Fibrils and Aβ42 Oligomers
(§3) Aβ42 fibrils: 1 mg of commercial Aβ42 monomer powder (from GL biochem) was dissolved in 1
(§4) mL 1,1,1,3,3,3-hexafluoro-2-propanol (HFIP) at room temperature and incubated for 1h. The
(§5) resulting solution was divided equally into two Eppendorf tubes. The solution in each Eppendorf
(§6) tube containing 0.5 mg Aβ42 monomer was then evaporated overnight and dried by vacuum
(§7) centrifuge to generate monomeric films. 100 μM Aβ42 fibrils solution was prepared by dissolving
(§8) the 0.5 mg monomeric films in 1.1 mL PBS buffer (with final DMSO concentration less than 1%)
(§9) and stiring at 37 °C for 3 days.
(§10) Aβ42 oligomers: The 0.5 mg monomeric films were dissolved in 1.1 mL PBS buffer (with final
(§11) DMSO concentration less than 1%) and incubated at 4 °C overnight. The resulting solution was
(§12) then centrifuged at 3000 rpm for 15 mins to remove the insoluble aggregates. The clear supernatant
(§13) was then used for the following experiments. […]
(§14) In Vitro Saturation Binding Studies with Aβ42 Fibrils and Aβ42 Oligomers
(§15) To a solution of increasing concentrations of compounds, a fixed concentration of the generated
(§16) aggregated Aβ42 fibrils or Aβ42 oligomers solutions (5 to 15 μM) was added to yield a total volume
(§17) of 100 μL. Nonspecific binding was determined without compounds. The mixture was incubated
(§18) for 15 min at room temperature. All fluorescence data were obtained on a SpectraMax M2e plate
(§19) reader (Molecular Devices).

Aβ42 oligomers = molecular target: T2, Aβ42 oligomers (Homo sapiens, UniProt P05067); test: Fluorescence saturation binding assay with Aβ42 oligomers; conditions: for Kd / binding ratio, Oligomers: Aβ42 oligomers; for Kd: 10 mM PBS pH 7.4, one site-specific binding model; for binding ratio, Oligomers: from cross point between plateau and initial slope; for binding preference oligomers vs fibrils (from Kd values): lower Kd for Aβ oligomers than Aβ fibrils
T2 construct: 1 mg of commercial Aβ42 monomer powder (from GL biochem) was dissolved in 1; purchased GL biochem
Experimental: as §1, §2, §3, §4, §5, §6, §7, §8, §9, §10, §11, §12, §13, §14, §15, §16, §17, §18, §19

[1] = molecular target: T3, Aβ plaques in 5xFAD mice brain sections (Homo sapiens, UniProt P05067); test: Fluorescence imaging of 5xFAD mouse brain sections, colocalization with Congo Red; conditions: 9-month-old 5xFAD brain sections; compound 5 μM, Congo red 2.5 μM
T3 construct: aggregated Aβ species were commonly observed in brain sections from 5xFAD transgenic mice; tissue Jackson Laboratories; host or cells: brain sections of 9-month-old 5xFAD transgenic mice
Experimental: (§20) In order to confirm that the compounds can also bind to native Aβ species, brain sections collected from 9-month-old 5xFAD transgenic mice have been employed in the fluorescence imaging studies. […] The brain sections were first incubated with our compounds, followed by Congo Red (CR), which is a well-established fluorescent probe that can bind to Aβ plaques.[34] The treated brain sections were then imaged using fluorescence microscope. […] Immunostaining with the CF594-conjugated HJ 3.4 antibody (CF594-HJ3.4) was also performed to confirm that these six compounds can bind to Aβ species specifically in the brain sections (Fig. 5). Moreover, the log D values of the compounds were also measured by octanol-PBS partition assays.[35]
Fig. 4 Fluorescence microscopy images of 5xFAD mice brain sections co-incubated with amphiphilic compounds (top), Congo red (middle) and merged images (bottom, along with the Parson's correlation coefficients R). Concentrations: [amphiphilic compounds] = 5 μM, [Congo red] = 2.5 μM; scale bar: 125 μm. TEXT PRINTED IN THE PICTURE: ZY-5-MT: Merged R= 0.84 | ZY-12-DT: Merged R= 0.52 | ZY-12-OMe: Merged R= 0.77 | ZY-15-OMe: Merged R= 0.77 | ZY-17-DT: Merged R= 0.77 | ZY-17-OMe: Merged R= 0.72 […]
Histological Staining of 5×FAD Mice Brain Sections
5xFAD transgenic mice brain sections were blocked with bovine serum albumin (2% BSA in PBS, pH 7.4, 10 min). Then the mice brain sections were transferred to a PBS solution of the compound and incubated for 1 h. After which, the brain sections were transferred to a PBS solution of Congo Red or antibody HJ 3.4 (Professor David Holtzman, 1 μg/ml) and incubated for another 1 h. Then, the brain sections were treated with BSA again (5 min) followed by washing with PBS (3 × 2 min), DI water (3 × 2 min). Finally, the mice brain sections were mounted with non-fluorescent mounting media, and the images were obtained by using EVOS FL Auto 2. ImageJ Fiji program was used for colocalization analysis and determination of the Pearson’s correlation coefficient. The primary

[2] = Log D by octanol-PBS partition assay; type: physicochemical; conditions: pH 7.4, fluorescence readout
Experimental: as §20, with “assays.[35] […]” for “assays.[35]”
The Log D value was measured following a published procedure using slight modifications.4 In general, compounds in 0.5 mL octanol was subjected to partition with 0.5 mL octanol-saturated
PBS. The whole mixture was stirred vigorously for 5 min, and centrifuged at 2,000 rpm for 5 min.
The top octanol layer was separated for later fluorescence measurement. The remaining PBS layer was partitioned with 0.5 mL PBS-saturated octanol, and the second top octanol layer was then separated after vigorous stirring and centrifuging at 2,000 rpm for another 5 min. The two octanol layers’ fluorescence spectra were recorded. The log D value was calculated by the fluorescence intensity ratio at the compounds’ emission wavelength for the above two octanol extractions. […]

[3] = Alamar Blue cytotoxicity assay in N2a cells; type: cell-based, mouse; conditions: mouse, N2a (Neuro2A) neuroblastoma cells, up to 10 μM, 40 h, read-out: cell viability
Experimental: (§21) After confirming these amphiphilic compounds can bind to Aβ species both in vitro and ex vivo, we next investigated whether these compounds could attenuate the toxicity of the Cu–Aβ species, as the Cu^2+ ions were reported to promote the formation of neurotoxic soluble Aβ42 oligomers.[45,46] Firstly, the Alamar Blue cell viability assay was used to measure the cytotoxicity of the compounds at different concentrations ranging from 20 μM to 2 μM in mouse neuroblastoma N2a cells (Fig. 8). […] Considering its high binding affinity to both Aβ fibrils and oligomers, we also further tested its ability to alleviate Cu^2+–Aβ42-induced toxicity. […] The underlying mechanism is unclear, but we propose that these compounds might perform similarly to the toxic oligomers that bind to some cell membrane receptors or insert into the membrane lipids to form porous channels.
(§22) Alamar Blue assay was chosen for the cytotoxicity studies.3 Mouse neuroblastoma Neuro2A (N2A) cells were grown with DMEM/10% FBS in a petri dish at 37 °C in a humidified atmosphere with 5% CO2. Then N2A cells were seeded in a 96-well plate (1.0 × 10^4/well). After 24 h incubation, cell media was changed to DMEM/N-2, and N2A cells were incubated for another 1 h. Then the cells were treated with different concentrations of compounds for 40 h, Alamar Blue solution (10 μL) was added, and the cells were incubated for another 90 min at 37 °C. The fluorescence intensity of each well was measured at 590 nm (excitation wavelength = 560 nm).
(§23) For the Cu2+-Aβ-induced toxicity studies, cells were treated monomeric Aβ42, Cu2+, monomeric Aβ42 + Cu2+, and monomeric Aβ42 + Cu2+ + compounds, monomeric Aβ42 + Cu2+ + copper chelators (Me2HTACN or Me3TACN), respectively. After 40 h incubation, Alamar Blue solution (10 μL) was added, and the cells were incubated for another 90 min at 37 °C. The fluorescence intensity of each well was measured at 590 nm (excitation wavelength = 560 nm). […]

[4] = system: Cu2+–Aβ42 species in Neuro2A cells; test: Cu2+-Aβ42-induced toxicity in Neuro2A cells (Alamar Blue); type: cell-based, mouse; conditions: [Aβ42] = [Cu2+] = 40 μM, compound 10 μM (ZY-12-OMe 5 μM), 40 h
Experimental: As mentioned above, compounds that are not cytotoxic at 10 μM, including ZY-12-MT, ZY-15-MT, ZY-15-OMe, ZY-17-MT, ZY-5-MT, ZY-5-DT, ZY-5-OMe, and ZY-12-OMe, were chosen for this study. Firstly, during the control studies, we observed that monomeric Aβ42 led to negligible neurotoxicity. Nevertheless, in the presence of both Cu^2+ and monomeric Aβ42, there was a significant cell death, which is likely due to the Cu^2+ associated neurotoxic Aβ42 oligomers formation.[46] […] According to the docking results, ZY-12-MT, ZY-15-OMe, ZY-15-MT, and ZY-5-OMe interact with Aβ42 tetramers mainly through residues His6, Asp7, Tyr10 (via hydrogen bonds), and Tyr10 (via π–π interactions). Some reports have also shown that His6, Asp7, and Tyr10 are potentially involved in the Cu–Aβ interactions, which explains why the compounds are able to attenuate the Cu–Aβ toxicity.[48]
Fig. 9 Cell viability results upon incubation of Neuro2A cells with monomeric Aβ42 in the presence or absence of metal ions and amphiphilic compounds. Concentrations: [Aβ42] = 40 μM, [Cu^2+] = 40 μM, [ZY-12-MT] = [ZY-15-OMe] = [ZY-15-MT] = [ZY-17-MT] = [ZY-5-OMe] = [ZY-5-MT] = [ZY-5-DT] = 10 μM, [ZY-12-OMe] = 5 μM. The error bars represent the standard deviation from five independent experiments, and the statistical analysis was evaluated according to one-way ANOVA (*p < 0.05).
Alamar Blue assay was chosen for the cytotoxicity studies.3 Mouse neuroblastoma Neuro2A (N2A) cells were grown with DMEM/10% FBS in a petri dish at 37 °C in a humidified atmosphere with 5% CO2. Then N2A cells were seeded in a 96-well plate (1.0 × 10^4/well). After 24 h incubation, cell media was changed to DMEM/N-2, and N2A cells were incubated for another 1 h. […]
as §23
10. The effect of copper chelators on Cu2+-Aβ42 neurotoxicity
Figure S8. Cell viability results upon incubation of Neuro2A cells with 10 μM copper chelators (Me2HTACN or Me3TACN) in the presence or absence of 40 μM (Aβ42 + Cu2+). The error bars represent the standard deviation from five independent experiments, and the statistical analysis was evaluated according to one-way ANOVA. […]

[5] = system: mouse neuroblastoma N2a cells; test: Alamar Blue cytotoxicity assay in N2a cells; type: cell-based; conditions: 2 to 20 μM
Experimental: as §21, §22, §23

[6] = Aβ42 fibrils, 10 mM PBS pH 7.4, one site-specific binding model, read-out: Kd, Fibrils

T2 sequence (P05067 672-713 limits assumed): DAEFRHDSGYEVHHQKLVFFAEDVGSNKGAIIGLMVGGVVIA
T1 sequence (P05067 672-713 limits assumed): as above
T3 sequence (P05067 672-713 limits assumed): as above

SMILES: CN1CCN(C)CCN(Cc2cc(/C=C/c3ccc(-c4ccc(C=O)cc4)s3)cc(CN3CCN(C)CCN(C)CC3)c2O)CC1 [ZY-15-DT]
Kd (Aβ42 fibrils; [6]): 1.27 µM
binding ratio, Fibrils (Aβ42 fibrils; Aβ42 fibrils): 2.9
Kd (Aβ42 oligomers): 4.55 µM
binding ratio, Oligomers (Aβ42 oligomers): 1.2
logD [2]: 1.16 ± 0.026

SMILES: CN1CCN(C)CCN(Cc2cc(/C=C/c3ccc(-c4ccc(N(C)C)cc4)s3)cc(CN3CCN(C)CCN(C)CC3)c2O)CC1 [ZY-5-DT]
Kd (Aβ42 fibrils; [6]): 1.67 µM
binding ratio, Fibrils (Aβ42 fibrils; Aβ42 fibrils): 1.6
Kd (Aβ42 oligomers): 2.09 µM
binding ratio, Oligomers (Aβ42 oligomers): 1.7
logD [2]: 1.03 ± 0.122
viability at 40 h [3]: > 80%

SMILES: CN1CCNCCN(C)CC1 [Me2HTACN, 1,4-dimethyl-1,4,7-triazacyclononane, reference compound]
effect on Cu2+–Aβ42-induced toxicity (cell viability, in words) [4]: not able to alleviate the neurotoxicity

SMILES: CN1CCN(C)CCN(C)CC1 [Me3TACN, 1,4,7-trimethyl-1,4,7-triazacyclononane, reference compound]
effect on Cu2+–Aβ42-induced toxicity (cell viability, in words) [4]: not able to alleviate the neurotoxicity

More lines, in order of falling Kd (Aβ42 fibrils; [6]), values ahead:

Kd (Aβ42 fibrils; [6]): 1.82 µM
binding ratio, Fibrils (Aβ42 fibrils; Aβ42 fibrils): 2.1
Kd (Aβ42 fibrils; another trial, [Aβ42 fibrils] = 5 μM, PBS pH 7.4 (Fig. S5), read-out: Kd, Aβ42 fibrils, another trial): 1.43 µM
Kd (Aβ42 oligomers): 0.46 µM
binding ratio, Oligomers (Aβ42 oligomers): 4.9
selectivity to Aβ oligomers (times higher than that for Aβ fibrils) (Aβ42 oligomers; from Kd values fibrils vs oligomers): 3.9 times
Pearson's correlation coefficient R, colocalization with Congo Red [1]: 0.84
logD [2]: 0.997 ± 0.031
SMILES: CN1CCN(C)CCN(Cc2cc(/C=C/c3ccc(-c4ccc(N(C)C)cc4)s3)ccc2O)CC1 [ZY-5-MT]
binding preference oligomers vs fibrils (from Kd values) (Aβ42 oligomers): higher binding affinity to oligomers over fibrils
viability at 40 h [3]: > 80%

Kd (Aβ42 fibrils; [6]): 1.38 µM
binding ratio, Fibrils (Aβ42 fibrils; Aβ42 fibrils): 3.5
Kd (Aβ42 oligomers): 0.67 µM
binding ratio, Oligomers (Aβ42 oligomers): 3.7
Pearson's correlation coefficient R, colocalization with Congo Red [1]: 0.52
logD [2]: 1.13 ± 0.045
SMILES: CN1CCN(C)CCN(Cc2cc(-c3ccc(/C=C/c4ccc(N(C)C)cc4)s3)cc(CN3CCN(C)CCN(C)CC3)c2O)CC1 [ZY-12-DT]
binding preference oligomers vs fibrils (from Kd values) (Aβ42 oligomers): higher binding affinity to oligomers over fibrils
cytotoxicity (in words) [5]: higher cytotoxicity than others

Kd (Aβ42 fibrils; [6]): 0.94 µM
binding ratio, Fibrils (Aβ42 fibrils; Aβ42 fibrils): 5.5
Kd (Aβ42 oligomers): 2.08 µM
binding ratio, Oligomers (Aβ42 oligomers): 2.0
logD [2]: 0.81 ± 0.079
SMILES: COc1cc(OC)cc(-c2ccc(/C=C/c3ccc(O)c(CN4CCN(C)CCN(C)CC4)c3)cc2)c1 [ZY-17-MT]
viability at 40 h [3]: > 80%
